Assay results from patent US10711000B2 (Fronthera U.S. Pharmaceuticals LLC, priority 2018, dated 2020).
Like-named read-outs stand apart in the source and are kept apart here.

Target: T1, Autotaxin (Homo sapiens, UniProt Q13822)
T1 construct: from tissue; host or cells: pooled human plasma
Assay: LPA formation in pooled human plasma (ex vivo autotaxin inhibition)
Format: biochemical
Settings: 2 hours incubation
Method: Autotaxin is a plasma phosphodiesterase that converts lysophosphatidylcholine (LPC) into lysophosphatidic acid (LPA), therefore LPA formation was used to evaluate the potency of autotaxin inhibitors. The potency of compound was evaluated ex vivo in pooled human plasma.
Various concentrations of compound were incubated with plasma for 2 hours, and the LPA 18:2 and 20:4 concentration was measured by LC/MS/MS. To determine the LPA18:2 or 20:4 concentration in study plasma, a 10× calibration standard of LPA 18:2 or 20:4 were prepared by serial dilution in butyl alcohol: 20000, 10000, 5000, 2000, 1000, 500, 200, 100, 50, 20, and 10 ng/mL. 3 μL of calibration standard solution was added into 27.0 μL of blank plasma in 1.5-mL microcentrifuge tubes to generate 1× calibration standards. The 30.0 μL of standards or study plasma was added into 1.5-mL microcentrifuge tubes. 200 μL of butyl alcohol (containing 25.0 ng/mL LPA17:0 for internal control) was added into each 1.5-mL microcentrifuge tube containing study plasma or calibration standards. After vortexing for 1 minute and centrifuging at 10000 rpm for 10 min, 180 μL of supernatant was transferred into a 96-well plate and the LPA18:2 concentration in the plasma was quantitated using LC/MS/MS together with standards. Briefly, 8 μL of the solutions were injected for LC-MS/MS analysis using an ACQUITY UPLC BEH C18 column (2.1×50 mm, 1.7 μm) with mobile phase A [20 mM NH4OAC in water (0.1% FA)] and phase B [5 mM NH4OAC in water/0.2% FA in ACN=5:95]. Mass spectrometer parameters optimization for LPA18:2 were performed by Deprotonated molecular ion at m/z 433.2 ([M−H]^−) for LPA18:2, 457.2 for LPA20:4 and abundant product ion at m/z 152.8 for both LPA18:2 and LPA20:4 were obtained. Quantitative data were acquired in multiple reaction monitoring (MRM) negative electrospray ionization mode
The inhibition rate of LPA formation was determined by comparing the levels of LPA in treated and non-treated plasma. The data was plotted against the corresponding concentration of compound and the IC50 was calculated through non-linear regression fitting.

[1] = LPA 18:2 by LC/MS/MS, read-out: LPA formation (18:2) (IC50)
[2] = LPA 20:4 by LC/MS/MS, read-out: LPA formation (20:4) (IC50)

SMILES: CCc1nn2ccc(N3CCC4(CC3)CN(C(=O)N3CC(O)C3)C4)cc2c1N(C)c1nc(-c2ccc(F)cc2)c(C#N)s1 [Example 12, 2-((2-ethyl-5-(2-(3-hydroxyazetidine-1-carbonyl)-2,7-diazaspiro[3.5]nonan-7-yl)pyrazolo[1,5-a]pyridin-3-yl)(methyl)amino)-4-(4-fluorophenyl)thiazole-5-carbonitrile]
- IC50 [1]: ≤ 0.1 µM
- IC50 [2]: ≤ 0.1 µM

SMILES: CCc1nn2ccc(N3CC4(CN(C(=O)N5CCN(C)CC5)C4)C3)cc2c1N(C)c1nc(-c2ccc(F)cc2)c(C#N)s1 [Example 14, 2-((2-ethyl-5-(6-(4-methylpiperazine-1-carbonyl)-2,6-diazaspiro[3.3]heptan-2-yl)pyrazolo[1,5-a]pyridin-3-yl)(methyl)amino)-4-(4-fluorophenyl)thiazole-5-carbonitrile]
- IC50 [1]: ≤ 0.1 µM
- IC50 [2]: ≤ 0.1 µM

SMILES: CCc1nn2ccc(N3CC4(CCN(C(=O)N5CC(O)C5)C4)C3)cc2c1N(C)c1nc(-c2ccc(F)cc2)c(C#N)s1 [Example 15, 2-((2-ethyl-5-(6-(3-hydroxyazetidine-1-carbonyl)-2,6-diazaspiro[3.4]octan-2-yl)pyrazolo[1,5-a]pyridin-3-yl)(methyl)amino)-4-(4-fluorophenyl)thiazole-5-carbonitrile]
- IC50 [1]: ≤ 0.1 µM
- IC50 [2]: ≤ 0.1 µM

SMILES: CCc1nn2ccc(N3CCC4(CN(C(=O)N5CC(O)C5)C4)C3)cc2c1N(C)c1nc(-c2ccc(F)cc2)c(C#N)s1 [Example 16, 2-((2-ethyl-5-(2-(3-hydroxyazetidine-1-carbonyl)-2,6-diazaspiro[3.4]octan-6-yl)pyrazolo[1,5-a]pyridin-3-yl)(methyl)amino)-4-(4-fluorophenyl)thiazole-5-carbonitrile]
- IC50 [1]: ≤ 0.1 µM
- IC50 [2]: ≤ 0.1 µM

SMILES: CCc1nn2ccc(N3CCC4(CCN(C(=O)N5CC(O)C5)CC4)C3)cc2c1N(C)c1nc(-c2ccc(F)cc2)c(C#N)s1 [Example 17, 2-((2-ethyl-5-(8-(3-hydroxyazetidine-1-carbonyl)-2,8-diazaspiro[4.5]decan-2-yl)pyrazolo[1,5-a]pyridin-3-yl)(methyl)amino)-4-(4-fluorophenyl)thiazole-5-carbonitrile]
- IC50 [1]: ≤ 0.1 µM
- IC50 [2]: ≤ 0.1 µM

SMILES: CCc1nn2ccc(N3CCC4(CCN(C(=O)N5CC(O)C5)C4)CC3)cc2c1N(C)c1nc(-c2ccc(F)cc2)c(C#N)s1 [Example 18, 2-((2-ethyl-5-(2-(3-hydroxyazetidine-1-carbonyl)-2,8-diazaspiro[4.5]decan-8-yl)pyrazolo[1,5-a]pyridin-3-yl)(methyl)amino)-4-(4-fluorophenyl)thiazole-5-carbonitrile]
- IC50 [1]: ≤ 0.1 µM
- IC50 [2]: ≤ 0.1 µM

SMILES: [2H]c1cc(N2CCN(CC(=O)N3CC(O)C3)CC2)cc2c(N(C)c3nc(-c4ccc(F)cc4)c(C#N)s3)c(CC)nn12 [Example 19, 2-((2-ethyl-5-(4-(2-(3-hydroxyazetidin-1-yl)-2-oxoethyl)piperazin-1-yl)pyrazolo[1,5-a]pyridin-3-yl-7-d)(methyl)amino)-4-(4-fluorophenyl)thiazole-5-carbonitrile]
- IC50 [1]: ≤ 0.1 µM
- IC50 [2]: ≤ 0.1 µM

SMILES: CCc1nn2ccc(N3CCC4(CCN(C(=O)N5CC(O)C5)C4)C3)cc2c1N(C)c1nc(-c2ccc(F)cc2)c(C#N)s1 (centres unmarked) [Example 20, 2-((2-ethyl-5-(7-(3-hydroxyazetidine-1-carbonyl)-2,7-diazaspiro[4.4]nonan-2-yl)pyrazolo[1,5-a]pyridin-3-yl)(methyl)amino)-4-(4-fluorophenyl)thiazole-5-carbonitrile]
- IC50 [1]: ≤ 0.1 µM
- IC50 [2]: ≤ 0.1 µM

SMILES: CN(c1nc(-c2ccc(F)cc2)c(C#N)s1)c1c(C2CC2)nn2ccc(N3CCN(CC(=O)N4CC(O)C4)CC3)cc12 [Example 21, 2-((2-cyclopropyl-5-(4-(2-(3-hydroxyazetidin-1-yl)-2-oxoethyl)piperazin-1-yl)pyrazolo[1,5-a]pyridin-3-yl)(methyl)amino)-4-(4-fluorophenyl)thiazole-5-carbonitrile]
- IC50 [1]: ≤ 0.1 µM
- IC50 [2]: ≤ 0.1 µM

SMILES: CN(c1nc(-c2ccc(F)cc2)c(C#N)s1)c1c(C2CC2)nn2ccc(N3CC4(CN(C(=O)[C@H]5CCOC5)C4)C3)cc12 [Example 22, (S)-2-((2-cyclopropyl-5-(6-(tetrahydrofuran-3-carbonyl)-2,6-diazaspiro[3.3]heptan-2-yl)pyrazolo[1,5-a]pyridin-3-yl)(methyl)amino)-4-(4-fluorophenyl)thiazole-5-carbonitrile]
- IC50 [1]: ≤ 0.1 µM
- IC50 [2]: ≤ 0.1 µM

SMILES: CCc1nn2c(C)cc(N3CCN(CC(=O)N4CC(O)C4)CC3)cc2c1N(C)c1nc(-c2ccc(F)cc2)c(C#N)s1 [Example 23, 2-((2-ethyl-5-(4-(2-(3-hydroxyazetidin-1-yl)-2-oxoethyl)piperazin-1-yl)-7-methylpyrazolo[1,5-a]pyridin-3-yl)(methyl)amino)-4-(4-fluorophenyl)thiazole-5-carbonitrile]
- IC50 [1]: 0.1 to 0.5 µM
- IC50 [2]: 0.1 to 0.5 µM

SMILES: CCc1nn2c(C)cc(N3CCN(CC(=O)N(C)C)CC3)cc2c1N(C)c1nc(-c2ccc(F)cc2)c(C#N)s1 [Example 24, 2-(4-(3-((5-cyano-4-(4-fluorophenyl)thiazol-2-yl)(methyl)amino)-2-ethyl-7-methylpyrazolo[1,5-a]pyridin-5-yl)piperazin-1-yl)-N,N-dimethylacetamide]
- IC50 [1]: 0.1 to 0.5 µM
- IC50 [2]: ≤ 0.1 µM

SMILES: CCc1nn2c(C)cc(N3CCN(CC(=O)N4CC[C@@H](O)C4)CC3)cc2c1N(C)c1nc(-c2ccc(F)cc2)c(C#N)s1 [Example 25, (R)-2-((2-ethyl-5-(4-(2-(3-hydroxypyrrolidin-1-yl)-2-oxoethyl)piperazin-1-yl)-7-methylpyrazolo[1,5-a]pyridin-3-yl)(methyl)pamino)-4-(4-fluorophenyl)thiazole-5-carbonitrile]
- IC50 [1]: ≤ 0.1 µM
- IC50 [2]: ≤ 0.1 µM

SMILES: CCc1nn2c(C)cc(N3CCN(CC(=O)N4CC[C@H](O)C4)CC3)cc2c1N(C)c1nc(-c2ccc(F)cc2)c(C#N)s1 [Example 26, (S)-2-((2-ethyl-5-(4-(2-(3-hydroxypyrrolidin-1-yl)-2-oxoethyl)piperazin-1-yl)-7-methylpyrazolo[1,5-a]pyridin-3-yl)(methyl)amino)-4-(4-fluorophenyl)thiazole-5-carbonitrile]
- IC50 [1]: 0.1 to 0.5 µM
- IC50 [2]: 0.1 to 0.5 µM

SMILES: CCc1nn2c(C)cc(N3CCN(CC(=O)N4CC(CO)C4)CC3)cc2c1N(C)c1nc(-c2ccc(F)cc2)c(C#N)s1 [Example 27, 2-((2-ethyl-5-(4-(2-(3-(hydroxymethyl)azetidin-1-yl)-2-oxoethyl)piperazin-1-yl)-7-methylpyrazolo[1,5-a]pyridin-3-yl)(methyl)amino)-4-(4-fluorophenyl)thiazole-5-carbonitrile]
- IC50 [1]: ≤ 0.1 µM
- IC50 [2]: ≤ 0.1 µM

SMILES: CCc1nn2c(C)cc(N3CC4(CN(C(=O)N5CC(O)C5)C4)C3)cc2c1N(C)c1nc(-c2ccc(F)cc2)c(C#N)s1 [Example 28, 2-((2-ethyl-5-(6-(3-hydroxyazetidine-1-carbonyl)-2,6-diazaspiro[3.3]heptan-2-yl)-7-methylpyrazolo[1,5-a]pyridin-3-yl)(methyl)amino)-4-(4-fluorophenyl)thiazole-5-carbonitrile]
- IC50 [1]: ≤ 0.1 µM
- IC50 [2]: ≤ 0.1 µM

SMILES: CCc1nn2c(C)cc(N3CC4(CN(C(=O)CO)C4)C3)cc2c1N(C)c1nc(-c2ccc(F)cc2)c(C#N)s1 [Example 29, 2-((2-ethyl-5-(6-(2-hydroxyacetyl)-2,6-diazaspiro[3.3]heptan-2-yl)-7-methylpyrazolo[1,5-a]pyridin-3-yl)(methyl)amino)-4-(4-fluorophenyl)thiazole-5-carbonitrile]
- IC50 [1]: 0.1 to 0.5 µM
- IC50 [2]: 0.5 to 1 µM

SMILES: CCc1nn2c(C)cc(N3CC4(CN(C(=O)C(C)(C)O)C4)C3)cc2c1N(C)c1nc(-c2ccc(F)cc2)c(C#N)s1 [Example 30, 2-((2-ethyl-5-(6-(2-hydroxy-2-methylpropanoyl)-2,6-diazaspiro[3.3]heptan-2-yl)-7-methylpyrazolo[1,5-a]pyridin-3-yl)(methyl)amino)-4-(4-fluorophenyl)thiazole-5-carbonitrile]
- IC50 [1]: ≤ 0.1 µM
- IC50 [2]: ≤ 0.1 µM

SMILES: CCc1nn2c(C)cc(N3CC4(CN(C(=O)C5COC5)C4)C3)cc2c1N(C)c1nc(-c2ccc(F)cc2)c(C#N)s1 [Example 31, 2-((2-ethyl-7-methyl-5-(6-(oxetane-3-carbonyl)-2,6-diazaspiro[3.3]heptan-2-yl)pyrazolo[1,5-a]pyridin-3-yl)(methyl)amino)-4-(4-fluorophenyl)thiazole-5-carbonitrile]
- IC50 [1]: 0.1 to 0.5 µM
- IC50 [2]: 0.1 to 0.5 µM
